According to patent US7985573B2, “Targeted drug-carrying bacteriophages” (priority 2005, dated 2011):

What was measured:
[1] = Solubilization of FITC by hygromycin; format: physicochemical
Source text: For conjugating a hydrophobic cargo, the drug, activated for amine conjugation (in the following experiments, NHS and isothiocynate chemistries were used) was initially reacted in an aqueous solution (NaHCO3 0.1 M pH=8.5) of an aminoglycoside at a concentration lower than the number of available amine groups (to leave one amine available for the subsequent conjugation to the carrier). The reaction was stirred gently for overnight at room temperature. Then the solution was titrated with HCl and Na-citrate buffer was added to final concentration of 0.1 M (pH=5.5). This solution was brought to a final molar concentration of 0.75 M NaCl and finally the carrier bacteriophages was added followed by immediate addition of EDC at concentration of ×100 molar excess over the target carboxyl side chains of the targeted drug carrier. This reaction was stirred gently for 1-2 hours at room temperature, followed by exhaustive dialysis against PBS/0.3 M NaCl. This process is illustrated in FIG. 13.
EDC mediated conjugation of aminoglycosides was first accomplished by using hygromycin as a model linker. hygromycin contains only two primary amines, one for drug conjugation and the other for conjugation to a carrier. Hygromycin was initially conjugated to FITC as described above.

[2] = test system: serum esterases; test: Chloramphenicol release from its linker in horse serum, reverse phase HPLC
Protocol: CAM release rate from its linker in 99% horse serum. (A) Reverse phase HPLC was used to measure the breakdown rate following the incubation for the indicated time periods in 99% horse serum at 37° C. Free chloramphenicol (marked by black arrows) is eluted 9 min after sample loading while intact chloramphenicol-linker adduct (marked by gray arrows) is eluted 16 min after sample loading. (B) release rate of chloramphenicol from its linker in 10% horse serum (gray bars) or without serum (in PBS, black bars) was evaluated by HPLC as in A, the % released chloramphenicol was calculated by dividing the area of the 9 min peak by the total peak area of all relevant peaks.
To test the CAM release rate, a reverse phase HPLC analysis was done based on the fact that elution time of free CAM is about 9 min while the CAM-linker adduct is eluted about 16 min after sample injection into a reverse phase C18 column. This was done as follows: reverse phase HPLC was used to measure the chloramphenicol release rate following the incubation of chloramphenicol-prodrug in 10% or in 99% horse serum, or without serum, all in PBS. […] The % of released chloramphenicol was calculated by dividing the area of the 9 min peak by the total peak area of all relevant peaks and multiplying by 100.

[3] = Stability of the CAM-linker adduct without serum (pH, PBS), HPLC; format: physicochemical
Protocol: To test the CAM release rate, a reverse phase HPLC analysis was done based on the fact that elution time of free CAM is about 9 min while the CAM-linker adduct is eluted about 16 min after sample injection into a reverse phase C18 column. This was done as follows: reverse phase HPLC was used to measure the chloramphenicol release rate following the incubation of chloramphenicol-prodrug in 10% or in 99% horse serum, or without serum, all in PBS. A reverse phase C-18 column was used on a LabChrom L7400 MERCK HITACHI machine with acetonitrile:water (30:70) in the mobile phase at 1 ml/min flow rate. Under these conditions, free chloramphenicol is eluted 9 min after sample loading while the intact chloramphenicol-prodrug is eluted 16 min after sample loading. The % of released chloramphenicol was calculated by dividing the area of the 9 min peak by the total peak area of all relevant peaks and multiplying by 100.

[4] = test system: susceptible bacteria; test: Growth inhibition of susceptible bacteria by the chloramphenicol-prodrug; format: cell-based; settings: concentrations up to ×100 of the free chloramphenicol IC50
[5] = test system: Staphylococcus aureus; test: Growth of Staphylococcus aureus treated with drug-carrying peptide-displaying phages; format: cell-based; settings: free drug at concentration equivalent to that released by the phages
Source text: FIG. 11. The effect of drug-carrying peptide-displaying phages on the growth of Staphylococcus aureus. (A) Growth curves of SA cells treated with SA-specific chloramphenicol prodrug-conjugated phage A12C (triangles), chloramphenicol prodrug-conjugated irrelevant phage F2b (circles), non conjugated SA-specific phage A12C as negative control (squares). (B) Growth curves of SA cells treated with SA-specific chloramphenicol prodrug-conjugated phage A12C (triangles) or various concentration of free chloramphenicol: 0.533 μg/ml (large filled circles), 1.0625 μg/ml (small open circles), 2.125 μg/ml (large open circles) or cells grown without any growth inhibitor (filled squares). Error bars represent the standard deviation of the data.
Phage A12C was chosen to assess the targeting effect of chloramphenicol-conjugated S. aureus-specific peptide-displaying phages. Conjugates were evaluated for their effect on bacterial growth as follows: an overnight bacterial culture was diluted ×100 in PBS. 1 ml of diluted bacteria was collected by centrifugation at 14,000 RPM and pellet re-suspended in 100 μl PBS. 10 μl of this bacterial suspension was mixed with 100 μl of 10^12 phages in ml PBS, and then incubated for 1 hr. […] Growth was recorded after dilution into the TSB medium by recording the optical density (OD) at 600 nm.

With `O=C1OC2(c3ccc(O)cc3Oc3cc(O)ccc32)c2ccc(N=C=S)cc21` [FITC] the “solubility in aqueous buffer” value ([1]; FITC stock solution (38.9 mg/ml in DMSO) added to equal volume of buffer without aminoglycosides) was “immediate formation of precipitate” and the “solubility in aqueous buffer” value ([1]; conjugated to hygromycin, molar ratio 10 hygromycin:1 FITC) was “immediate solubilization”.

In the case of `O=C(CCCC(=O)ON1C(=O)CCC1=O)OC[C@@H](NC(=O)C(Cl)Cl)[C@H](O)c1ccc([N+](=O)[O-])cc1` [chloramphenicol-prodrug], the release rate kinetics ([2]; 10% horse serum, monitored over 48 hours, compared with 99% serum after correcting for concentration) was “same linear kinetics”, the “CAM released from the linker” value ([2]; 1 hr incubation in 99% horse serum at 37° C., linear kinetics) was “about 15%” and the “spontaneous hydrolysis rate of the ester bond” value ([3]; PBS alone, entire 48 h period) was “less than 5%”. For the same compound, the “stability of CAM-linker adduct” value ([3]; pH values between 6-8) was “stable” and the “inhibition of the growth of susceptible bacteria” value [4] was “did not inhibit the growth”.

For `O=C(N[C@H](CO)[C@H](O)c1ccc([N+](=O)[O-])cc1)C(Cl)Cl` [chloramphenicol], the “growth of the SA bacteria (OD 600 nm)” value [5] was “did not retard”.
